According to patent US20160088853A1, “Ultraviolet Disinfection of Produce, Liquids and Surfaces” (DREXEL UNIVERSITY, priority 2013, published 2016):
Where two headings read alike, the source gives them in different places.

Legend:
[1] = tested on: bacterial and fungal strains; settings: riboflavin with UV 365 nm, artificial surface; cited from earlier work
[2] = for fluorescence decay rate constant: 1 μM fluorescein, UV; for change in relative fluorescence intensity: 12 minutes of UV exposure
Description: In this example, fluorescein dye was used to detect the presence of free radicals, since interactions of oxidizing free radicals with fluorescein quench the fluorescence signal intensity. A fluorescein dye solution (4 μg/L) containing 0.4% (w/v) fructose and a fluorescein dye solution (4 μg/L) without fructose (control) were exposed to UV radiation at wavelength of 254 nm.
A batch-UV processing unit (Spectronics Spectrolinker XL-1500 UV Crosslinker, Westbury, N.Y.) was used for Examples 5-10. The apparatus consisted of 5 UV lamps (254 nm, 15 W, Spectronics Corporation, Westbury, N.Y.) that generated a UV intensity of approximately 20 mW/cm^2 at the surface of exposure mounted within a shielded box (46.4×15.9×31.8 cm). Fluorescence intensity measurement noise was minimized by allowing the lamps to warm up for at least 15 minutes prior to taking measurements.
The test fluorescein solution with approximately 1 μM fluorescein was prepared in deionized water (pH 6.3) or 100 mM buffer at pH 6. […] Specifically, treatments were carried out by adding a 10.0 ml solution into an uncovered glass petri dish and exposing it to UV radiation for various amounts of time (0-12 minutes) in the UV processing unit. The samples in the petri dish were stirred to achieve uniform exposure to UV light. Ambient room temperature (20-22° C.) was used for the treatments. To measure the fluorescence intensity of the solution, at each time interval, 100 μl of the sample was pipetted from the petri dish into a well of a 96-well plate optimized for fluorescence measurement. Fluorescence was measured in a Gemini XPS fluorescence micro-plate reader (Molecular Devices, Sunnyvale, Calif.) with excitation and emission wavelengths of 485 nm and 510 nm, respectively. All the fluorescence values were normalized using Eq. (1):
where I0=fluorescence intensity at time t=0 minutes and It=fluorescence intensity after ‘t’ minutes of UV exposure.

[3] = Solution absorbance at 254 nm; assay type: physicochemical
[4] = in the presence of fructose, model apple juice system; cited from earlier work
E. coli BL-21 = test: UV inactivation of E. coli BL-21 suspension, plate count; assay type: cell-based; settings: 1% (w/v) gallic acid, UV 10 seconds, 109 CFU/mL in phosphate buffer, FIG. 6
Description: E. coli BL-21 was suspended in phosphate buffer at the level of 10^9 CFU/mL. Gallic acid was incorporated into bacterial suspension at the level of 1% (w/v). This suspension was exposed to UV light (intensity of 4 mJ/cm^2) for 10 seconds. The control experiment was performed in the exact same manner except for addition of gallic acid. After UV treatment, the cells were separated from the buffer through centrifugation and bacterial inactivation was measured using a plate count technique.

E. coli 0157:H7 = settings: in lettuce; cited from earlier work

Cc1cc2nc3c(=O)[nH]c(=O)nc-3n(C[C@H](O)[C@H](O)[C@H](O)CO)c2cc1C [Riboflavin]
inactivation of bacterial and fungal strains [1]: effective in inactivating most of the bacterial and fungal strains

O=C(CO)[C@@H](O)[C@H](O)[C@H](O)CO [fructose]
fluorescence decay rate constant ([2]; 10 mM fructose): 0.16 ± 0.01 min⁻¹ | fluorescence decay rate constant ([2]; 20 mM fructose): 0.27 ± 0.02 min⁻¹ | fluorescence decay rate constant ([2]; 100 mM fructose): 0.91 ± 0.02 min⁻¹ | fluorescence decay rate constant ([2]; 300 mM fructose): 2.1 ± 0.06 min⁻¹ | fluorescence decay rate constant ([2]; 500 mM fructose): 2.4 ± 0.13 min⁻¹ | fluorescence lost ([2]; 500 mM fructose, within 2 minutes of UV exposure, FIG. 10A): more than 90% | average absorbance at 254 nm ([3]; 500 mM solution): 0.12 | UV induced rate of degradation of patulin [4]: increased

c1ccoc1 [furan, reference compound]
change in relative fluorescence intensity ([2]; 33 μM furan): < 20% | change in relative fluorescence intensity ([2]; 66 μM furan): < 20% | average absorbance at 254 nm ([3]; 132 μM): less than 0.001

O=C(O)c1cc(O)c(O)c(O)c1 [gallic acid, 3,4,5-trihydroxybenzoic acid]
microbial count after exposure to UV light (E. coli BL-21): undetectable

Acidified sodium chlorite
reduction of E. coli 0157:H7 (E. coli 0157:H7): ≤ 5 log
